Experimental data: patent publication US20060161221A1, “Activation of calcium-mediated cell functions in cells and tissues, including aggregation of human platelets, by nanosecond pulsed electric fields” (priority 2004, published 2006)
“Also recorded” adds a separate entry of the source.

What was measured:
Assay type in all cases: cell-based, human
HL-60 cells [1] = test: Fura-2 measurement of agonist-induced calcium mobilization with and without BAPTA, media without calcium
Excerpt: (§1) Cell culture—Non-transformed HL-60 and Jurkat cells were obtained from and cultured as recommended by American Type Culture Collection (ATCC, Rockville, Md.) as previously described (Beebe, S. J., et al. (2002). IEEE Trans. Plasma Sci. 30:1 Part 2, 286-292; Beebe, S. J., et al. (2003). FASEB J. 17, 1493-1495). Cells were removed from log phase growth and suspended in Hanks Balanced Salt Solution (HBSS) in the presence or absence of Ca^2+ and Mg^2+. When calcium was omitted, cells were washed several times in buffer without added calcium. In other experiments, the calcium chelator BAPTA was added to chelate intracellular calcium. Cells were loaded with BAPTA-AM and washed in HBSS before the addition of agonists.
To be certain that BAPTA was able to chelate all intracellular calcium, two agents that mobilize calcium by two different mechanisms were used and the calcium concentration in the cell was directly measured using the fluorescent calcium indicator fura-2. Cells were loaded with Fura2 and BAPTA and tested in media without calcium. The first agonist tested was the purinergic agonist ATP, which leads to the release of intracellular calcium through a phospholipase C— and IP3-mediated mechanism through the IP3 receptor in the endoplasmic reticulum (Berridge, M. J. et al. (1998) Nature 395, 645-648). This is followed by an influx of calcium through store-operated calcium channels in the plasma membrane. […] The second agonist tested was cyclopiazonic acid (CPA), which causes increases in calcium by inhibiting the calcium-ATPase in the endoplasmic reticulum. This pump replenishes the intracellular calcium stores after actions by calcium-mobilizing agents. […] Thus, BAPTA inhibited rapid and transient as well as slow and sustained calcium mobilization by agents that acted on a plasma membrane receptor and an endoplasmic reticulum calcium pump.

HL-60 cells [2] = test: Caspase activation (z-VAD-FITC, flow cytometry) in nsPEF-exposed, BAPTA-loaded HL-60 cells; conditions: pulses at 10, 60 and 300 ns, equalized energy density
Procedure: Experiments with HL-60 cells in the presence and absence of BAPTA cells were carried out as described for Jurkat cells in FIG. 2 (n=4).
as §1, with “Cells were loaded with BAPTA-AM and washed in HBSS before the addition of agonists.” left out
(§2) Determination of caspase activation in vivo—Caspase activity was determined in vivo using a fluorescent-labeled, irreversible caspase inhibitor, VAD-fmk-FITC (Val-Ala-Asp-fluoromethylketone labeled with fluoroisothiocyanate) that is specific for the active site of the enzyme (see Beebe et al., 2003). Briefly, cells were exposed to nsPEF, incubated in the presence of the fluorescent caspase inhibitor for 20 minutes, washed to remove background fluorescence and subjected to flow cytometry. Values are expressed as the geometric mean FITC fluorescence. […]

Jurkat cells = test: Caspase activation (z-VAD-FITC, flow cytometry) in nsPEF-exposed, BAPTA-loaded Jurkat cells; conditions: energy density ~1.7 J/cc
Procedure: FIG. 2 describes the effect of intracellular calcium chelation by BAPTA on caspase activation in human Jurkat cells. Jurkat cells were incubated with BAPTA-AM ([…]) in Hanks Balanced salt solution (HBSS) with calcium for 30 minutes and washed in HBSS with calcium. The BAPTA loaded cells were exposed to nsPEF as indicated. The electric fields were adjusted to provide a similar energy density (˜1.7 J/cc) under all conditions. After exposure to nsPEF, the cells were incubated with a cell permeable, irreversible inhibitor of active caspases, z-VAD-FITC for 20 minutes before analysis by flow cytometry (Beebe et al., (2003) FASEB J 17, 1493-1495). The values for caspase activity are expressed as the geometric mean z-VAD-FITC fluorescence determined in 15,000 individual cells. […]
as §2

HL-60 cells [3] = test: Fluorometric analysis (fura-2) of intracellular free calcium [Ca2+]i in HL-60 cells; conditions: for change in [Ca2+]i: 0.1 μM
Procedure: Cell culture-Non-transformed HL-60 cells were used for this study and were obtained from American Type Culture Collection (ATCC, Rockville, Md.). […] 2 mM CaCl2 was added to this buffer when loading cells with fluorescent indicators unless otherwise stated. In some experiments extracellular calcium was omitted by washing the cells several times in the same physiological buffer without added calcium. […] Post pulse, the cell suspension was removed from the pulsing cuvette and assayed. Fluorometric Analysis of Internal Calcium Response-To analyze the response of a greater number of cells, the fluorescent indicator fura-2 (Molecular Probes, Eugene, Oreg.) was used with a fluorometer. HL-60 cells were incubated with fura-2/AM (2 μM) in the physiological buffer described above containing 2 mM calcium for 45 minutes at 37° C. The cells were then washed and resuspended in calcium-free or calcium-containing buffer at a concentration of 7.7×10^6 cells/ml. […] Pulser® cuvettes could not be used to perform calcium measurements in the fluorometer because of the aluminum plates, which act to block either the excitation light or the emission light depending on the placement of the cuvette in the fluorometer. Therefore, the cells were first placed in the fluorometer cuvette, to obtain a baseline reading, cells were then removed from the fluorometer cuvette with a Pasteur pipette and added to the Pulser® cuvette.

[4] = cells loaded with Fura2 and BAPTA

Nc1ncnc2c1ncn2[C@@H]1O[C@H](COP(=O)(O)OP(=O)(O)OP(=O)(O)O)[C@@H](O)[C@H]1O [ATP]
calcium mobilization (fura-2) (HL-60 cells [1]; absence of BAPTA): rapid and transient increase

O=C(O)CN(CC(=O)O)c1ccccc1OCCOc1ccccc1N(CC(=O)O)CC(=O)O [BAPTA]
effect on nsPEF-induced caspase activity (HL-60 cells [2]): did not significantly affect
effect on ATP-induced calcium mobilization (HL-60 cells [1]; [4]): completely inhibited
effect on CPA-mediated calcium mobilization (HL-60 cells [1]; [4]): completely inhibited
effect on nsPEF-induced caspase activation (Jurkat cells; pulses at 10 and 60 ns): no significant effect
reduction of nsPEF-induced caspase activity (Jurkat cells; pulses with 300 ns durations): about 25%

O=c1ccn([C@@H]2O[C@H](COP(=O)(O)OP(=O)(O)OP(=O)(O)O)[C@@H](O)[C@H]2O)c(=O)[nH]1 [UTP]
[Ca2+]i on addition of 1.0 mM calcium to treated cells (capacitative calcium entry) (HL-60 cells [3]; 10 μM UTP in low calcium-containing buffer, then 1.0 mM calcium added): rapid rise
reduction of peak [Ca2+]i effect when added after one 60 ns 15 kV/cm pulse (HL-60 cells [3]; 10 μM, extracellular calcium deficient, vs UTP added before a pulse): approximately 60%
increase in [Ca2+]i (HL-60 cells [3]; 10 μM, extracellular calcium present): approximately 300 nM
effect on [Ca2+]i compared with 10 μM (HL-60 cells [3]; 100 μM, extracellular calcium present): did not produce any larger effect
effect on [Ca2+]i as % of that seen with 10 μM UTP (HL-60 cells [3]; 0.1 M (so in the source), extracellular calcium present): approximately 20%
increase in [Ca2+]i (HL-60 cells [3]; absence of extracellular calcium, transient): approximately 50 nM
[Ca2+]i increase by one 15 kV/cm pulse after the agonist, as % of pulse before agonist addition (HL-60 cells [3]; extracellular calcium deficient): approximately 25%
reduction of [Ca2+]i increase by one 15 kV/cm pulse given after the agonist (HL-60 cells [3]; extracellular calcium present): approximately 65%
reduction of [Ca2+]i effect when added after one 15 kV/cm pulse (HL-60 cells [3]; extracellular calcium present, vs UTP by itself): approximately 60%

COc1ccc([C@@H]2Sc3ccccc3N(CCN(C)C)C(=O)[C@@H]2OC(C)=O)cc1 [diltiazem]
effect on nsPEF-induced increases in [Ca2+]i (HL-60 cells [3]; HL-60 cells): no effect

C/C=C(/C)C(=O)O[C@H]1C(C)=C2[C@H]([C@@H]1OC(=O)CCCCCCC)[C@@](C)(OC(C)=O)C[C@H](OC(=O)CCC)[C@@]1(O)[C@H]2OC(=O)[C@@]1(C)O [thapsigargin]
[Ca2+]i response when added after one 15 kV/cm pulse (HL-60 cells [3]; 0.1 μM at approximately 50 seconds, 1 mM extracellular calcium): did not increase
change in [Ca2+]i (HL-60 cells [3]; extracellular calcium absent): smaller and more transient increase
change in [Ca2+]i (HL-60 cells [3]; extracellular calcium present): prolonged increase; also recorded: gradual and sustained increase
reduction of [Ca2+]i increase by one 15 kV/cm pulse given after the agonist (HL-60 cells [3]; extracellular calcium present): approximately 85%
